Test [1] concerns the target T1, 2-amino-4-hydroxy-6-hydroxymethyldihydropteridine pyrophosphokinase (Escherichia coli (strain K12), UniProt P26281).
T1 sequence (P26281 whole entry): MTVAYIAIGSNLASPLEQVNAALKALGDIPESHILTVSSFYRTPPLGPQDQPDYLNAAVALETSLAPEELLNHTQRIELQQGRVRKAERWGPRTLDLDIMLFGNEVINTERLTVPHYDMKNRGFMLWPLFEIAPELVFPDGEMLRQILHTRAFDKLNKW
In words: Binding affinity to Escherichia coli HPPK using 6-hydroxymethyl-7,8-dihydropterin as substrate and ATP by fluorometric analysis.

The target in test [2] is T1, 2-amino-4-hydroxy-6-hydroxymethyldihydropteridine pyrophosphokinase. The test is described as follows: Inhibition of Escherichia coli HPPK using 6-hydroxymethyl-7,8-dihydropterin as substrate and [32P]-ATP.

As usually defined, the pKd is the Kd on a negative log10 scale, so that one unit is a factor of ten. A low value points to a large Kd. What is called pIC50 is the negative decadic logarithm of the IC50, by convention in mol/L.

pIC50, pKd: −log10 of the molar value. Where only a bound is given, the exact number is not on record here.

In the case of `Nc1nc2ncc(CNCCN3CCC(SC[C@H]4O[C@@H](n5cnc6c(N)ncnc65)[C@H](O)[C@@H]4O)CC3)nc2c(=O)[nH]1`, in test [1], the negative logarithm of the Kd (pKd) is < 3.82. Further, the pIC50 in test [2] was < 4.00.

Compound `CC1(C)Nc2nc(N)[nH]c(=O)c2N=C1C(=O)NCCN1CCC(SC[C@H]2O[C@@H](n3cnc4c(N)ncnc43)[C@H](O)[C@@H]2O)CC1` gave a pKd in test [1] of 5.59. For the same compound, the pIC50 in test [2] is 5.50.

On to `Nc1nc2ncc(COP(=O)(O)OP(=O)(O)OP(=O)(O)OP(=O)(O)OC[C@H]3O[C@@H](n4cnc5c(N)ncnc54)[C@H](O)[C@@H]3O)nc2c(=O)[nH]1`, for which the pKd in test [1] is 6.33. This compound also showed a negative-log IC50 (pIC50) in test [2] of 6.36.
